In patent publication US5731334A, “Method for treating cancer using taxoid onium salt prodrugs” (priority 1995, dated 1998):

Columns and labels:
[1] = tested on: BT-549 breast carcinoma cells; assay: XTT dye binding cytotoxicity assay, BT-549; type: cell-based; conditions: Homo sapiens; BT-549, breast carcinoma; 72 h; read-out: IC50
Experimental: (§1) All cell lines described herein were obtained from the ATCC and maintained in media formulations as recommended by the supplier. The cell lines were tested for mycoplasma contamination prior to incubation at 37° C. in 5% carbon dioxide. Normal human dermal fibroblasts, peripheral blood lymphoblasts and mammary epithelial cells were obtained from Clonogenic Cor., San Diego, Calif. and were maintained under the above incubation conditions in special media provided by the supplier.
(§2) Antiproliferative activities of the onium salts were determined using the XTT dye binding assay. Cells were harvested with trypsin/EDTA (Irvine Scientific), washed, resuspended in the appropriate medium, and counted in a hemocytometer using Trypan Blue to determine viability. Then 10^4 cells/well were added to 96 well microtiter plates and incubated for 24 hours before addition of drug at concentrations in the range of 10^-4 to 10^-13 molar by direct addition from DMSO solutions. After 72 hours, XTT binding dye was added and incubation was continued for 4 hours. The inhibition of cell proliferation was quantified using a Molecular Devices Microplate Reader. The absorbance of XTT was measured at […]. The concentration of drug which inhibited growth of cells by 50% was calculated from duplicated determinations.

[2] = tested on: OVCAR-3 ovarian carcinoma cells; assay: XTT dye binding cytotoxicity assay, OVCAR-3; type: cell-based; conditions: Homo sapiens; OVCAR-3, ovarian carcinoma; 72 h; read-out: IC50
Experimental: as §1, §2

[3] = tested on: CHO Chinese hamster ovary cells; assay: XTT dye binding cytotoxicity assay, CHO; type: cell-based; conditions: Cricetulus griseus; CHO, Chinese hamster ovary (untransformed); 72 h; read-out: IC50
Experimental: as §1, §2

[4] = tested on: HMEC mammary epithelial cells; assay: XTT dye binding cytotoxicity assay, HMEC; type: cell-based; conditions: Homo sapiens, mammary epithelial cells (untransformed), 72 h, read-out: IC50
Experimental: as §1, §2

[5] = tested on: RPMI-7666 blood lymphoblasts; assay: XTT dye binding cytotoxicity assay, RPMI-7666; type: cell-based; conditions: Homo sapiens; RPMI-7666, blood lymphoblasts (untransformed); 72 h; read-out: IC50
Experimental: as §1, §2

human tumor xenografts = assay: In vivo antitumor effect (human tumor xenografts in nude mice)
[6] = In vivo elimination in BALB/C mice; conditions: 24 hours after injection
Experimental: C-2'-MPA-Taxol (1 mM in 0.9% saline solution, 400 μL) was injected along with tritiated taxol at 32000 cpm into normal BALB/C mice (4 mice each) housed in metabolic cages and the urine and feces were measured periodically in a scintillation counter using Achillea scintillation fluid.
The antitumor activity of the onium salts of taxol were assessed in nude mice bearing tumors of human A-549 lung adenocarcinomas, Ovcar-3 ovarian carcinoma, and PC-3 prostate carcinoma cells. […] FIG. 5 illustrates antiproliferation results for 2'-MPA-3-thiophene-taxol (4) and 2' MPA taxol (2) for the Ovcar-3 human tumor xenograft. […] FIG. 6, summarizes the results for a PC-3, prostate tumor model study. Taxol was compared with both the 2'- and 7-substituted oxonium salts. […] Tritiated taxol and 2' MPA-taxol were used in drug elimination experiments in normal BALB/C mice. In both groups of mice of four animals each, only 4-5% of the administered radioactivity was measured in the combined urine and feces 24 hours after injection.

[7] = Stability in water, assay medium and storage solution; type: physicochemical
Excerpt: used and differing ultraviolet absorption maxima between the prodrug and the drug, the stability was easily assayed using UV detection. In all the ensuing studies, the only degradation products detected were the taxoids and the pyridinone that results from the hydrolysis of the onium salts. In water, these compounds show surprising stability for up to weeks depending upon the storage conditions. […] The fraction of ethyl acetated extractable material was between 18 and 23% for all onium salts and 95% for the present compounds.
FIG. 2 illustrates the results of GTP induced polymerization and calcium chloride induced depolymerization of tubulin in the presence of taxol and the 2'- and 7-MPA substituted derivatives.

CC(=O)O[C@H]1C(=O)[C@@]2(C)[C@H]([C@H](OC(=O)c3ccccc3)[C@]3(O)C[C@H](OC(=O)[C@H](Oc4cccc[n+]4C)[C@@H](NC(=O)c4ccccc4)c4ccccc4)C(C)=C1C3(C)C)[C@]1(OC(C)=O)CO[C@@H]1C[C@@H]2O [Compound 2]
IC50 [1]: 0.00572 µM
IC50 [2]: 0.00749 µM
IC50 [3]: 0.214 µM
IC50 [4]: 0.127 µM
IC50 [5]: 0.131 µM
in vivo antitumor efficacy in words (human tumor xenografts): produced tumor regression with a high percentage of animals being free of measurable tumor masses at the end of the experiments
administered radioactivity in the combined urine and feces [6]: 4-5%
storage stability ([7]; 1-2% Tween #80 or Tween #20 with or without ethyl alcohol): stable and may stored without significant loss
stability under the assembly-disassembly conditions ([7]; HPLC analysis): completely stable
